Results reported in patent US20030044399A1, “Method of treatment” (SmithKline Beecham Corporation, priority 1998, published 2003).

Assays:
Cruzain = Cruzain (Trypanosoma cruzi, UniProt P25779); assay: Cysteine protease inhibition, progress curve method, cruzain; type: biochemical; settings: 4 uM Ac-Lys-Glu-Lys-Leu-Arg-AMC, 100 mM Na acetate pH 5.5, 5 mM cysteine; read-out: Cruzain Ki
Method in brief: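 Buffer was 100 mM sodium acetate pH 5.5 with 5 mM cysteine and 2% DMSO, at ambient temperature; reactions started with enzyme, and AMC formation was followed for 20–30 min. Substrates: Leishmania and Schistosoma, 10 uM Cbz-Phe-Arg-AMC; falcipain, 10 uM Cbz-Leu-Arg-AMC; cruzain, 4 uM Ac-Lys-Glu-Lys-Leu-Arg-AMC. Linear curves gave Ki,app; curved ones gave kobs/[I].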

Rhodazain = Rhodazain (Trypanosoma brucei rhodesiense, UniProt Q95PM0); assay: Cysteine protease inhibition, progress curve method, rhodazain; type: biochemical, Trypanosoma brucei rhodesiensi; settings: Rhodazain Ki (nM), 10 uM Cbz-Leu-Arg-AMC, 100 mM Na acetate pH 5.5, 5 mM cysteine
Falcipain 2 = Falcipain 2 (Plasmodium falciparum, UniProt Q8I6U4); assay: Cysteine protease inhibition, progress curve method, falcipain; type: biochemical; settings: 10 uM Cbz-Leu-Arg-AMC, 100 mM Na acetate pH 5.5, 5 mM cysteine
Description: Standard assay conditions for the determination of kinetic constants used 10 uM fluorogenic peptide substrate, Cbz-Phe-Arg-AMC for the cysteine proteases from Leishmania spp and Schistosoma Mansoni, Cbz-Leu-Arg-AMC for the cysteine proteases from Plasmodium falciparum and Trypanosoma brucei rhodesiensi, and Ac-Lys-Glu-Lys-Leu-Arg-AMC (4 uM final substrate concentration) for the cysteine protease from Trypoanosoma cruzi, and were determined in 100 mM Na acetate at pH 5.5 containing 5 mM cysteine. Stock substrate solutions were prepared at concentrations of […] in DMSO with 10 uM (4 uM for Ac-Lys-Glu-Lys-Leu-Arg-AMC) final substrate concentration in the assays. The final DMSO concentration was 2% and the final volume was 100 uL. All assays were conducted at ambient temperature. Product progress curves were generated over 20 to 30 minutes following formation of AMC product.
Potential inhibitors were evaluated using the progress curve method. Assays were carried out in the presence of variable concentrations of test compound. Reactions were initiated by addition of enzyme to buffered solutions of inhibitor and substrate. Data analysis was conducted according to one of two procedures depending on the appearance of the progress curves in the presence of inhibitors. For those compounds whose progress curves were linear, apparent inhibition constants (Ki,app) were calculated according to equation 1 (Brandt et al., Biochemitsry, 1989, 28, 140):
v=VmA/[Ka(1+I/Ki,app)+A] (1)
Where v is the velocity of the reaction with maximal velocity Vm, A is the concentration of substrate with Michaelis constant of Ka, and I is the concentration of inhibitor.
[AMC]=vsst+(v0−vss)[1−exp (−kobst)]/kobs (2)
Where [AMC] is the concentration of product formed over time t, v0 is the initial reaction velocity and vss is the final steady state rate. Values for kobs were then analyzed as a linear function of inhibitor concentration to generate an apparent second order rate constant (kobs/inhibitor concentration or kobs/[I]) describing the time-dependent inhibition. A complete discussion of this kinetic treatment has been fully described (Morrison et al., Adv. Enzymol. Relat. Areas Mol. Biol., 1988, 61, 201).
Exemplary inhibition data for the compounds used in the present method collected in accordance with the above-described procedure are listed in Table I.

Rhodazain, sequence (Q95PM0 entry or part of it): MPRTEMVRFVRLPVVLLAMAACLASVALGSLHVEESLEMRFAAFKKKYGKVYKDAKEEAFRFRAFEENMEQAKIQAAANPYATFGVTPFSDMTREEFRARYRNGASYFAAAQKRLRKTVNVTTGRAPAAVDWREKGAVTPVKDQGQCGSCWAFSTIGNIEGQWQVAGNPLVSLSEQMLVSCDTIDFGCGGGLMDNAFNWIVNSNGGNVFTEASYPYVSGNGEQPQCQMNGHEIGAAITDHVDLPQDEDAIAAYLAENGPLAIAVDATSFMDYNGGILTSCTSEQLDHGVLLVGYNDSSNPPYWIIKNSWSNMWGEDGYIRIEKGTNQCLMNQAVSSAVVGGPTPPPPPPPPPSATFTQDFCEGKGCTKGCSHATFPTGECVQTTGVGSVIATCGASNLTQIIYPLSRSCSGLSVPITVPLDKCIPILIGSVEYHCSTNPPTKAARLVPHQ
Cruzain, sequence (P25779 123-337): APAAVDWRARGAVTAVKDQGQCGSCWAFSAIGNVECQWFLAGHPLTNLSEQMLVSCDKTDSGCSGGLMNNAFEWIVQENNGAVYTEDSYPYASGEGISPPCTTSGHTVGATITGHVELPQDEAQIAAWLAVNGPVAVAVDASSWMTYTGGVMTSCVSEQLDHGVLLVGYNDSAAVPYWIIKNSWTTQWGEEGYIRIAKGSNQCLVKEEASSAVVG
Falcipain 2, sequence (Q8I6U4 244-484): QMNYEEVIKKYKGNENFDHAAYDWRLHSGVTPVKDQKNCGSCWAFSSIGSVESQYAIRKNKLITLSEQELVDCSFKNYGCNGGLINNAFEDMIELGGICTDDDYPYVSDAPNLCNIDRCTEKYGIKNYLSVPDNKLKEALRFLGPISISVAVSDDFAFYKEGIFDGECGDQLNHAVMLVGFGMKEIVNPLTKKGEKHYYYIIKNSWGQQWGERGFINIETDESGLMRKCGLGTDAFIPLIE

Structure (SMILES)	Ki (Cruzain) [nM]	Ki (Rhodazain) [nM]	Ki (Falcipain 2) [nM]
CC(C)CC(NC(=O)c1nc(-c2ccccc2)oc1C(F)(F)F)C(=O)NC1CCCN(S(=O)(=O)c2ccccn2)CC1=O (single isomer, unassigned) [Example 105]	13	5.3	84
CC(C)C[C@@H](NC(=O)c1ccc2ncccc2c1)C(=O)N[C@@H]1CCCN(S(=O)(=O)c2ccccn2)CC1=O (single isomer, unassigned) [Example 152]	2	1.6	3.1
CC(C)C[C@@H](NC(=O)c1ccnc2ccccc12)C(=O)N[C@@H]1CCCN(S(=O)(=O)c2ccccn2)CC1=O (single isomer, unassigned) [Example 153]	2.4	1.6	4.5
CC(C)C[C@@H](NC(=O)c1ccc2ccccc2c1)C(=O)N[C@@H]1CCCN(S(=O)(=O)c2ccccn2)CC1=O (single isomer, unassigned) [Example 155]	4.1	3	6.1
CC(C)C[C@@H](NC(=O)c1cnc2ccccc2c1)C(=O)N[C@@H]1CCCN(S(=O)(=O)c2ccccn2)CC1=O (single isomer, unassigned) [Example 156]	4.1	2.6	6.2
COc1cc2cc(C(=O)N[C@H](CC(C)C)C(=O)N[C@H]3CCCN(S(=O)(=O)c4ccccn4)CC3=O)sc2cc1OC (single isomer, unassigned) [Example 165]	5.5	2.1	2.5
COc1ccc2oc(C(=O)N[C@H](CC(C)C)C(=O)N[C@@H]3CCCN(S(=O)(=O)c4ncccc4C)CC3=O)cc2c1 (single isomer, unassigned) [Example 171]	2.5	3.2	4.9
CC(C)C[C@@H](NC(=O)c1ccc2c(c1)OCO2)C(=O)N[C@@H]1CCCN(S(=O)(=O)c2ccccn2)CC1=O (stereo in doubt) [Example 59, Benzo[1,3]dioxole-5-carboxylic acid {(S)-3-methyl-1-[3-oxo-1-(pyridine-2-sulfonyl)-azepan-4-ylcarbamoyl]-butyl}amide]	3.4	2.4	3.4
COc1ccc2oc(C(=O)N[C@H](CC(C)C)C(=O)N[C@@H]3CCCN(S(=O)(=O)c4ncccc4C)CC3=O)cc2c1 (stereo in doubt) [Example 162, 5-Methoxy-benzofuran-2-carboxylic acid {(S)-3-methyl-1-[1-(3-methyl-pyridine-2-sulfonyl)-3-oxo-azepan-4-ylcarbamoyl]-butyl}amide]	2.7	2.5	6.1
COc1cc2cc(C(=O)N[C@@H](CC(C)C)C(=O)NC3CCCN(S(=O)(=O)c4cn(C)cn4)CC3=O)oc2cc1OC (stereo partly drawn) [Example 39, 5,6-Dimethoxy-benzofuran-2-carboxylic acid {(S)-3-methyl-1-[3-oxo-1-(1-methyl-1H-imidazole-4-sulfonyl)-azepan-4-ylcarbamoyl]-butyl}amide]	7.4	2.2	3.9
CC(C)CC(NC(=O)c1cc2ccccc2o1)C(=O)N[C@H]1CCCN(S(=O)(=O)c2nccn2C)CC1=O (stereo partly drawn) [Example 40]	2.3	2	4.5
CC(C)C[C@H](NC(=O)c1cc2ccccc2o1)C(=O)N[C@H]1CCCN(S(=O)(=O)c2cn(C)cn2)CC1=O [Example 42, Benzofuran-2-carboxylic acid {(S)-3-methyl-1-[1-(1-methyl-1H-imidazole-4-sulfonyl)-3-oxo-azepan-4-ylcarbamoyl]-butyl}amide]	2	1.8	5.3
CC(C)C[C@@H](NC(=O)c1cc2ccccc2o1)C(=O)N[C@@H]1CCCN(S(=O)(=O)c2cccc[n+]2[O-])CC1=O [Example 45]	4.1	2.8	5.7
